Laboratory results taken from ChEMBL document CHEMBL1201862, “PubChem BioAssay data set” (2004).
The source made the active and inactive calls.

Legend:
Bcl-2-related protein A1 = molecular target: T1, Bcl-2-related protein A1 (Mus musculus, UniProt Q07440); format: functional;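 further: confirmatory dose–response counterscreen on Bfl-1, used to check hits from a UBC13 polyubiquitin inhibitor campaign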
T1 sequence (Q07440 whole entry): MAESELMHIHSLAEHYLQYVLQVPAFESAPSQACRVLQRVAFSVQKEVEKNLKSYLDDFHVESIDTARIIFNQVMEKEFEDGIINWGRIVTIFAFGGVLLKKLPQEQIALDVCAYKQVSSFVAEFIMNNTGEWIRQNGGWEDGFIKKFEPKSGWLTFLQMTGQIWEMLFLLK

[1] = molecular target: T2, Ubiquitin-conjugating enzyme E2 N (Homo sapiens, UniProt P61088); format: functional
T2 sequence (P61088 whole entry): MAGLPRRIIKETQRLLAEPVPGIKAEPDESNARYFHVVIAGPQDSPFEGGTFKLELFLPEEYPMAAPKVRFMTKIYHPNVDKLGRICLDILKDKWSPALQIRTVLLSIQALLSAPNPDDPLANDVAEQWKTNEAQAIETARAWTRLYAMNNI

[2] = molecular target: T2, Ubiquitin-conjugating enzyme E2 N; format: functional; remark: listed apart in the source
[3] = molecular target: T3, Heat shock factor protein 1 (Mus musculus, UniProt P38532); test: HSF1 potentiators in luciferase reporter cells, confirmation, cell-based, NIH3T3, luminescence, dose retest (AID 435004); format: functional;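 further: stress induced by proteasome inhibitor MG132 added 30 min after compound; luciferase reporter driven by HSF1 response element in NIH3T3 cells; actives raise luminescence as potentiators of the MG132 stress response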
T3 sequence (P38532 whole entry): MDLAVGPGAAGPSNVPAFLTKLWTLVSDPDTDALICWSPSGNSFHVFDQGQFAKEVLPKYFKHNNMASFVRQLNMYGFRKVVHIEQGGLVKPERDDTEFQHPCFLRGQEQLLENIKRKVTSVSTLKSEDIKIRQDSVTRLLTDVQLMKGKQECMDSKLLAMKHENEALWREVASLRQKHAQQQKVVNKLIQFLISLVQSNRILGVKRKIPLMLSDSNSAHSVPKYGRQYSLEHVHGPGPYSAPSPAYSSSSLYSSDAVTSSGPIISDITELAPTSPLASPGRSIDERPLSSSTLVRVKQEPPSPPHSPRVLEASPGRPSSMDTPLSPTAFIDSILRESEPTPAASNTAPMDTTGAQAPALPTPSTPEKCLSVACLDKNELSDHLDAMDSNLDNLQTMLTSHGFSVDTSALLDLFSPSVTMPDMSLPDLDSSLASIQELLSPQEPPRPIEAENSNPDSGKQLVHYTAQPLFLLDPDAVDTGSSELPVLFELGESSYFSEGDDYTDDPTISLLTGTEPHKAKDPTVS

[4] = molecular target: T4, Endoribonuclease toxin MazF (Escherichia coli K-12, UniProt P0AE70); test: MazF toxin RNase activators, dose response, biochemical, fluorescence, single-stranded RNA substrate, uHTS hits (AID 588481); format: functional
T4 sequence (P0AE70 whole entry): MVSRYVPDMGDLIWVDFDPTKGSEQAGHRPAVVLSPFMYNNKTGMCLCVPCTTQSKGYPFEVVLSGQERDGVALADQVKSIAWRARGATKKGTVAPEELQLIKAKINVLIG

[5] = molecular target: T4, Endoribonuclease toxin MazF; test: fluorescent RNA oligo signal without MazF, dose response, counter-screen for MazEF activator project, biochemical, fluorescence, single-stranded RNase substrate (AID 588502); format: functional
[6] = molecular target: Dual specificity tyrosine-phosphorylation-regulated kinase 1A (Rattus norvegicus, UniProt Q63470); format: biochemical, Homo sapiens
Vero = Vero cell cytotoxicity, cytotoxicity control for flavivirus capping enzyme inhibitors (AID 588742); format: functional; conditions: Chlorocebus sabaeus
[7] = molecular target: T5, RNA-binding protein pos-1 (Caenorhabditis elegans, UniProt G5EF15); test: inhibitors of POS-1/mex-3 RNA binding, dose response, biochemical, fluorescence polarization (AID 1964);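 further: purified POS-1 fused to maltose binding protein made in E. coli; potency of compounds blocking POS-1 binding to fluorescent RNA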
T5 sequence (G5EF15 whole entry): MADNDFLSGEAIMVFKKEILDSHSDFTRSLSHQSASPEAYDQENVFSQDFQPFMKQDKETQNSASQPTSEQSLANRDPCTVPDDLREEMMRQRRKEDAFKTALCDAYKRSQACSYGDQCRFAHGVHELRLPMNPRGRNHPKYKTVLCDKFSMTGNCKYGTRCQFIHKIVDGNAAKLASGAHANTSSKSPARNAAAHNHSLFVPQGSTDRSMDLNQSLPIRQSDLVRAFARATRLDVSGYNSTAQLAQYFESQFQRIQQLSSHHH

[8] = molecular target: T6, Zinc finger protein mex-5 (Caenorhabditis elegans, UniProt Q9XUB2); test: MEX-5/TCR-2 RNA interaction inhibitors, dose response, biochemical, C. elegans, fluorescence polarization (AID 1960)
T6 sequence (Q9XUB2 whole entry): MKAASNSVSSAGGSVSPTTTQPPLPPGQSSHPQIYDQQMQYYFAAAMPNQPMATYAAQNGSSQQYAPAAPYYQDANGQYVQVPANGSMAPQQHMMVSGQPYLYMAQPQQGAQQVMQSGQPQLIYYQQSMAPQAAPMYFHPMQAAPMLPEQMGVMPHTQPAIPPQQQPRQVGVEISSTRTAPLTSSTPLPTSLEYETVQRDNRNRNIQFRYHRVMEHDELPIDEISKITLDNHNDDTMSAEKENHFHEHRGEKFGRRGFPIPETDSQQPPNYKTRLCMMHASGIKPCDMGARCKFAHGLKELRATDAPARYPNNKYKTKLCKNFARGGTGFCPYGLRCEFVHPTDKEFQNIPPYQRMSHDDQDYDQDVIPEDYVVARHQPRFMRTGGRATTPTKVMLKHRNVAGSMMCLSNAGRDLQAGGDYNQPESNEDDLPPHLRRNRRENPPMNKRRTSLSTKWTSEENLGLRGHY

[9] = molecular target: T7, Carboxy-terminal domain RNA polymerase II polypeptide A small phosphatase 1 (Homo sapiens, UniProt Q9GZU7); test: inhibitors of CTDSP1, concentration-response testing, biochemical assay, absorbance-based, actives from ultra-high-throughput screening (AID 540297); format: functional
T7 sequence (Q9GZU7 whole entry): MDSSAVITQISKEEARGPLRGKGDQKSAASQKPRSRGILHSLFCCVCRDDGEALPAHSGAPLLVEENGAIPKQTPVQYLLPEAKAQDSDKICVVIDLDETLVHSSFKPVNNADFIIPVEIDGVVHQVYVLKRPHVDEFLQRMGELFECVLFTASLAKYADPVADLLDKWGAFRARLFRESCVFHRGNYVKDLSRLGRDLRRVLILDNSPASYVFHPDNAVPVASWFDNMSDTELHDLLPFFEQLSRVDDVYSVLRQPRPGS

[10] = molecular target: T8, DNA dC->dU-editing enzyme APOBEC-3A (Homo sapiens, UniProt P31941); test: APOBEC3A DNA deaminase inhibitors, dose response, biochemical (AID 504722); format: functional
[11] = molecular target: T9, DNA dC->dU-editing enzyme APOBEC-3G (Homo sapiens, UniProt Q9HC16); test: Dose Response confirmation of small molecule APOBEC3G DNA Deaminase Inhibitors via a fluorescence-based single-stranded DNA deaminase assay. [Related pubchem assays (depositor defined):AID493012, AID493028]; format: functional
Large T antigen = Large T antigen (Simian virus 40, UniProt P03070); format: functional, Betapolyomavirus macacae;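 further: Confirmatory-stage PubChem screen for compounds that inhibit SV40 T antigen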
[12] = NIH-3T3 fibroblast cytotoxicity, dose response, cytotoxicity control, cell-based, fluorescence, Alamar Blue, secondary assay (AID 2327); format: functional;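 further: NIH-3T3 mouse fibroblasts cultured with fluconazole at 8 µg/mL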
[13] = Luminescence Cell-Based Dose Confirmation HTS to Identify Activators of 5'UTR Stem-Loop Driven Alpha-Synuclein mRNA Translation in H4 Neuroglioblastoma Cells. [Related pubchem assays: 1829 (Project Summary), 1814 (Primary HTS)]; format: functional
[14] = Luminescence Cell-Based Dose Response HTS to Identify Activators of Luciferase Translation or Activity in H4 […] Cells. [Related pubchem assays: 1829 (Project Summary), 1814 (Primary HTS)]; format: functional
H4 = test: Luminescence Cell-Based Dose Response HTS to Identify Activators of 5'UTR Stem-Loop Driven Prion Protein mRNA Translation in H4 Neuroglioblastoma Cells. [Related pubchem assays: 1829 (Project Summary), 1814 (Primary HTS)]; format: functional; conditions: Homo sapiens
[15] = C. albicans growth with fluconazole, confirmation, fluorescence, retest (AID 2467); format: functional, cell-based
[16] = inhibitors of intracellular T. cruzi replication, confirmation, NIH3T3 host cells, beta-gal luminescence (AID 2044); format: functional, cell-based;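 further: intracellular parasites grown in NIH/3T3 mouse fibroblasts as host cells; luminescent beta-galactosidase reporter signal from transgenic T. cruzi replicating inside host cells; inhibitors lower the luminescence signal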
[17] = cytotoxicity toward NIH3T3 fibroblasts, dose response, counter-screen, cell-based, ATP luminescence, mouse fibroblasts (AID 2010); format: functional;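 further: cells exposed to compound for about 90 hours before reading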
HEK293 = test: inhibitors of LMP1-driven NF-kB reporter, dose response, cell-based, HEK293, luciferase, cherry-pick (AID 588343); format: functional; conditions: Homo sapiens
INS1 = test: beta cell apoptosis inhibitors, cytokine rescue, dose response, luminescence, retest (AID 449756); format: functional, cell-based; conditions: Rattus norvegicus;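 further: cell death triggered by IL-1 beta plus TNF-alpha plus IFN-gamma mixture; protective hits raise ATP signal compared with cytokine alone wells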
[18] = Shn3 3'UTR reporter inhibitors, dose response, cell-based, Clone20 osteoblasts, firefly luciferase, cherry-picked (AID 624132); format: functional;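 further: firefly luciferase luminescence from reporter carrying the Shn3 3'UTR in osteoblasts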
[19] = HepG2 cell cytotoxicity, dose response, cytotoxicity control for Shn3 inhibitor project, CellTiter-Glo, cherry-picked (AID 624134); format: functional, cell-based
[20] = control 3'UTR Renilla luciferase suppression, dose response, counter-screen for Shn3 inhibitor project, cell-based, Clone20-Shn3RL, cherry-picked (AID 624133); format: functional
Troponin, cardiac muscle = Troponin, cardiac muscle (Homo sapiens, UniProt P19429+P45379+P63316); test: Fluorescence-based biochemical high throughput dose response assay for activators of the calcium sensitivity of cardiac Regulated Thin Filaments (RTF). [Related pubchem assays (depositor defined):AID493008, AID493018, AID504382, AID504383]; format: protein-complex assay
[21] = molecular target: T8, DNA dC->dU-editing enzyme APOBEC-3A; test: Dose Response confirmation of small molecule APOBEC3A DNA Deaminase Inhibitors via a fluorescence-based single-stranded DNA deaminase assay. [Related pubchem assays (depositor defined):AID493011, AID493024]; format: functional
[22] = molecular target: T9, DNA dC->dU-editing enzyme APOBEC-3G; format: functional
[23] = inhibitors of Vif binding to APOBEC3G peptide, primary screen, biochemical, TR-FRET, GST-Vif 1-94, biotin-A3G peptide, dose response retest (AID 1117319); format: functional;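 further: TR-FRET signal of purified GST-Vif binding a biotinylated A3G peptide; inhibitors lower the FRET signal by blocking Vif and A3G binding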

T9 sequence (Q9HC16 whole entry): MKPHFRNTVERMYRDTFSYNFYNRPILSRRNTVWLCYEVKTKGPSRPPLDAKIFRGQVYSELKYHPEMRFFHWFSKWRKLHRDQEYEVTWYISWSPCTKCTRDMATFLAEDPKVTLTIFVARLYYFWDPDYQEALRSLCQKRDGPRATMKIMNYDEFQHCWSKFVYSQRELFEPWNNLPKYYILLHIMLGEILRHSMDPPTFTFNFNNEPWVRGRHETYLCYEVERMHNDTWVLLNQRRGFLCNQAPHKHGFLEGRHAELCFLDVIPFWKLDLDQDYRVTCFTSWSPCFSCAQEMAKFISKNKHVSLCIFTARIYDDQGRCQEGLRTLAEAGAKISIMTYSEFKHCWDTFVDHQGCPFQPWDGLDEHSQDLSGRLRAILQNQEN
T8 sequence (P31941 whole entry): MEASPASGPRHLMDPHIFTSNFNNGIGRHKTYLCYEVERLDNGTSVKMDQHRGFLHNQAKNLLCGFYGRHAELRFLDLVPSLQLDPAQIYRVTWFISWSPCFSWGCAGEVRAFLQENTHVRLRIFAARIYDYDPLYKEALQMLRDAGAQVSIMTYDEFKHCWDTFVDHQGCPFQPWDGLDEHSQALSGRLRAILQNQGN
Sequence of Large T antigen (P03070 whole entry): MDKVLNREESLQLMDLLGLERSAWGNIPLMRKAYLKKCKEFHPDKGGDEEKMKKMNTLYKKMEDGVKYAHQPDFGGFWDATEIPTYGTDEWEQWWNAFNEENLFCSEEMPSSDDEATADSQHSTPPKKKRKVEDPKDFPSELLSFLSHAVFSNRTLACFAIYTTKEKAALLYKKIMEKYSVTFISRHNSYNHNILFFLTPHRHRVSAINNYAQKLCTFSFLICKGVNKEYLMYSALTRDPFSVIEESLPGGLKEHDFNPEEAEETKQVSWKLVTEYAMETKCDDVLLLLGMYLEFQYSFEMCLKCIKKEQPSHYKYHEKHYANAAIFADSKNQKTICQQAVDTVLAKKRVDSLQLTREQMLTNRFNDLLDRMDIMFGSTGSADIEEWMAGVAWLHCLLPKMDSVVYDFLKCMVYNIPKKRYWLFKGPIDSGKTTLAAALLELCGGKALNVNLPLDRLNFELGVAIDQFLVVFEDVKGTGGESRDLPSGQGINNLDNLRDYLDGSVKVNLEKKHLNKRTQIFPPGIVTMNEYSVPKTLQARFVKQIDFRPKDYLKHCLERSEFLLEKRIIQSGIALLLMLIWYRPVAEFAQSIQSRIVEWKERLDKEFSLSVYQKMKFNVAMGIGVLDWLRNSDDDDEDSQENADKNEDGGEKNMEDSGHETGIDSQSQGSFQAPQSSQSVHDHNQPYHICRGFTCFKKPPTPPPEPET

## O=C(CSCc1ccc([N+](=O)[O-])cc1)N[N-][C+]1CCCCCC1
Bcl-2-related protein A1
  IC50: > 20 µM (inactive)
[1]
  IC50: 13.7 µM (active)
[2]
  IC50: 5.71 µM (active)

## O=C1NC(=S)S/C1=C/c1ccc(OC(=O)c2ccco2)cc1
[3]
  EC50: > 260 µM (inactive)
[4]
  EC50: > 99 µM (inactive)
[5]
  EC50: 16.4 µM (active)
[6]
  AC50: 4.1 µM (active)

## O=C(NCc1ccco1)c1cc(-c2cccs2)nc2ccccc12
Vero
  CC50: > 40 µM (active)

## CCCCN1C(=O)NC(=O)/C(=C/c2c[nH]c3ccccc23)C1=O
[7]
  EC50: 28.4 µM (inconclusive)
[8]
  EC50: 29.9 µM (active)
[4]
  EC50: > 99 µM (inactive)
[5]
  EC50: > 99 µM (inactive)

## COc1ccc2c(c1)c(=O)oc1c(C)c(OCc3cc(C(=O)O)oc3C)ccc12
[6]
  AC50: 1.51 µM (active)
[9]
  IC50: 9.08 µM (active)

## COc1ccccc1/C=C/C=N/n1c(S)nnc1-c1ccncc1
[10]
  IC50: > 100 µM (inactive)
[11]
  IC50: 2.21 µM (active)

## CC(/C=N/n1c(S)nnc1-c1[nH]nc2c1CCC2)=C\c1ccco1
Large T antigen
  IC50: 32.3 µM (active)
[10]
  IC50: > 100 µM (inactive)
[11]
  IC50: 2.29 µM (active)

## CCn1c(/C=C/c2ccc([N+](=O)[O-])o2)nc2ccccc2c1=O
[12]
  EC50: 7.6 µM (inconclusive)
[7]
  EC50: 5.46 µM (inconclusive)
[13]
  EC50: > 120 µM (not active)
[14]
  EC50: > 60 µM (not active)
H4
  EC50: > 120 µM (not active)
[8]
  EC50: > 150 µM (inconclusive)
[15]
  EC50: 682 nM (active)
[16]
  EC50: 213 nM (active)
[17]
  EC50: 3.14 µM (active)
HEK293
  AC50: 10.8 µM (active)
[4]
  EC50: > 99 µM (inactive)
INS1
  AC50: 3.43 µM (active)
[5]
  EC50: > 99 µM (inactive)
[18]
  AC50: 4.51 µM (active)
[19]
  AC50: 13.6 µM (active)
[20]
  AC50: 8.48 µM (active)

## NC(=O)NC(CC(=O)NNC(=O)c1ccccn1)c1ccc(Cl)cc1 (stereo not given)
Bcl-2-related protein A1
  IC50: > 20 µM (inactive)
[1]
  IC50: 12.4 µM (active)
[2]
  IC50: 19.6 µM (active)

## Cc1cc(Cl)nc(N)n1
Troponin, cardiac muscle
  EC50: > 71.4 µM (inactive)

## CCc1nc(Nc2cccc(O)c2)c2oc3ccccc3c2n1
[6]
  AC50: 9.77 µM (active)

## CC(=O)C(=CNc1noc(C)c1Br)C(C)=O
Troponin, cardiac muscle
  EC50: > 71.6 µM (inactive)

## COc1ccc(S(=O)(=O)N(CCc2ccccc2)CC(=O)NC(C)C)cc1
[21]
  IC50: 6.35 µM (active)
[22]
  IC50: 5.95 µM (active)
[23]
  IC50: > 100 µM (active)

## CNc1ccccc1C(C)(C)c1cc(C)[nH]n1
Troponin, cardiac muscle
  EC50: > 71.5 µM (inactive)

## COc1cccc(/C=N\NC(=O)c2sc(N)nc2C)c1OC
Bcl-2-related protein A1
  IC50: > 20 µM (inactive)
[1]
  IC50: 0.965 µM (active)
[2]
  IC50: 0.947 µM (active)

## COc1cc2c(cc1OC)-c1c(OC)c(OC)cc3c1[C@H](C2)[N+](C)(C)CC3 [GLAUCINE METHIODIDE]
[21]
  IC50: 1.85 µM (active)
[22]
  IC50: 1.66 µM (active)
